Measurements: paper PMC6275967 (ACS Omega, 2018)
In brackets after ≈: the same amount, converted by molar mass. Several values for one entry are separate records, joined by “and”; a condition that tells them apart may be missing. Identical values can stand only once. Values belong to the compound of their own block, whether it stands above or below them.

Assays:
[1] = test system: E. coli (ATCC 35218); experiment: MIC80 by broth microdilution; format: cell-based, Escherichia coli; conditions: for MIC80 E. coli (ATCC35218): ≥80% growth inhibition, 16–24 h, CAMHB
[2] = test system: S. aureus Newman, G01, and F4; experiment: MIC80 of S. aureus Newman, G01 and F4
[3] = molecular target: cupin domain of CapF; conditions: isothermal titration calorimetry; cited from earlier work
[4] = test system: S. aureus (ATCC 29213); experiment: MIC80 by broth microdilution; format: cell-based, Staphylococcus aureus
[5] = test system: E. coli (ATCC 35218); experiment: time-killing curve; format: cell-based, Escherichia coli; conditions: 16× MIC80, within 6 h
[6] = test system: Cryptococcus neoformans; conditions: ref 15 and unpublished data; cited from earlier work

Compound: C=C(C)c1ccccc(=O)c1O [Compound 349, 3-isopropenyl-tropolone]
- growth inhibition, in words ([2]; F4 and G01 strains): did not inhibit
- MIC80 ([2]; S. aureus F4 (Newman with ermB-inactivated cap5F gene)): 100 µM (≈ 16.2 µg/mL)
- MIC80 ([2]; S. aureus G01 (Newman with ermB-inactivated cap5G gene)): 100 µM (≈ 16.2 µg/mL)
- MIC80 ([2]; S. aureus Newman): 66.7 µM (≈ 10.8 µg/mL)
- growth inhibition, in words ([2]; wild-type Newman): slightly inhibited
- Kd [3]: 27 ± 7 µM

Compound: O=c1cccccc1S [Compound 363, thiotropolone]
- inhibition of S. aureus, in words ([4]; structure-activity discussion): only slightly decreased
- reduction of colony count [5]: ~3 log10
- MIC80 Cryptococcus neoformans [6]: 0.25 µM (≈ 0.0345 µg/mL)

Compound: O=c1cccccc1Sc1cccccc1=O [Compound 684]
- MIC80 E. coli (ATCC35218) [1]: < 20 µM

Compound: O=c1cccccc1SSc1cccccc1=O [Compound 685]
- MIC80 E. coli (ATCC35218) [1]: < 20 µM

Compound: CC[C@H](C)[C@H](NC(=O)OCC1c2ccccc2-c2ccccc21)C(=O)Sc1cccccc1=O [Compound 686]
- activity against E. coli, in words [1]: inactive

Further lines, results first:

- MIC80 E. coli (ATCC35218) [1]: < 30 µM and < 20 µM
Compound: O=C(Cc1ccccc1)Sc1cccccc1=O [Compound 680]

- MIC80 E. coli (ATCC35218) [1]: < 20 µM
Compound: O=C(Sc1cccccc1=O)c1ccccc1C(F)(F)F [Compound 677]

- MIC80 E. coli (ATCC35218) [1]: < 20 µM
Compound: O=C(Sc1cccccc1=O)c1cccc(C(F)(F)F)c1 [Compound 678]

- MIC80 E. coli (ATCC35218) [1]: < 30 µM
- MIC80 S. aureus (ATCC29213) ([4]; ≥80% growth inhibition, 16–24 h, CAMHB): < 20 µM
Compound: O=C(Sc1cccccc1=O)c1ccccc1 [Compound 364]
